Test results: patent US9809574B2, “Isoindoline or isoquinoline compounds, a process for their preparation and pharmaceutical compositions containing them” (LES LABORATOIRES SERVIER, priority 2013, dated 2017)
Structures can show the parent of a compound that is named as a salt.

What was measured:
Bcl-2 protein = Bcl-2 protein (histag-Bcl-2, UniProtKB P10415) (Homo sapiens (Human), UniProt P10415); assay: Inhibition of Bcl-2 by the fluorescence polarisation technique; format: binding; conditions: fluorescence polarisation test; incubation for 2 hours; read-out: IC50 (nM) Bcl-2 FP
Text: For partial inhibitors, the percentage fluorescence polarisation inhibition for a given concentration of the test compound is indicated.

[1] = system: RS4; 11 leukaemia cell line; assay: In vitro cytotoxicity, Microculture Tetrazolium Assay (MTT); format: cell-based; conditions: Homo sapiens, 11 cells exposed for 48 hours
Method: The cytotoxicity studies were carried out on the RS4; 11 leukaemia cell line and on H146 small Cell Lung Carcinoma cell line. The cells are distributed onto microplates and exposed to the test compounds for 48 hours. The cell viability is then quantified by a colorimetric assay, the Microculture Tetrazolium Assay (Cancer Res., 1987, 47, 939-942).

Bcl-2 protein, sequence (P10415 whole entry): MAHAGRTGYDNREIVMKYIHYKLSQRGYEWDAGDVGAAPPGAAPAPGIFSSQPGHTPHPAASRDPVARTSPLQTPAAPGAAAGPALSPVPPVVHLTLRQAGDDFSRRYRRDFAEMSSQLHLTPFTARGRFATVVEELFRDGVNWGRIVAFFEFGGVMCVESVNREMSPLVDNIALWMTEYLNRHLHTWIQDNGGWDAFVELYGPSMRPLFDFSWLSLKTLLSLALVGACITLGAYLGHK

Compound	IC50 (Bcl-2 protein) [nM]	IC50 [1] [nM]
CN(C(=O)c1cc(-c2cc3c(cc2C(=O)N2Cc4ccccc4C[C@H]2CN2CCOCC2)CN(C(=O)Cc2cccnc2)C3)n2c1CCCC2)c1ccc(O)cc1 [Example 42, N-(4-Hydroxyphenyl)-N-methyl-3-{6-[(3S)-3-(morpholin-4-ylmethyl)-1,2,3,4-tetrahydroisoquinoline-2-carbonyl]-2-[2-(pyridin-3-yl)acetyl]-2,3-dihydro-1H-isoindol-5-yl}-5,6,7,8-tetrahydroindolizine-1-carboxamide]	38	> 150
CCCCN(CCCC)C(=O)c1cc(-c2cc3c(cc2C(=O)N2CCc4ccccc4C2)CN(C(=O)Oc2ccccc2)CC3)n(C)c1C [Example 161, Phenyl 6-[4-(dibutylcarbamoyl)-1,5-dimethyl-1H-pyrrol-2-yl]-7-(1,2,3,4-tetrahydroisoquinoline-2-carbonyl)-1,2,3,4-tetrahydroisoquinoline-2-carboxylate]	68	> 150
CN(C(=O)c1cc(-c2cc3c(cc2C(=O)N2Cc4ccccc4C[C@H]2CN2CCOCC2)CN(S(=O)(=O)c2ccccc2)C3)n2c1CCCC2)c1ccc(O)cc1 [Example 19, 3-[2-(Benzenesulfonyl)-6-[(3S)-3-(morpholin-4-ylmethyl)-1,2,3,4-tetrahydroisoquinoline-2-carbonyl]-2,3-dihydro-1H-isoindol-5-yl]-N-(4-hydroxyphenyl)-N-methyl-5,6,7,8-tetrahydroindolizine-1-carboxamide hydrochloride]	47	774
Cc1c(C(=O)N(C)c2ccc(O)cc2)cc(-c2cc3c(cc2C(=O)N2Cc4ccccc4C[C@H]2C)CN(C(=O)Oc2ccc(Cl)cc2)C3)n1C [Example 105, 4-Chlorophenyl 5-{4-[(4-hydroxyphenyl)(methyl)carbamoyl]-1,5-dimethyl-1H-pyrrol-2-yl}-6-[(3R)-3-methyl-1,2,3,4-tetrahydroisoquinoline-2-carbonyl]-2,3-dihydro-1H-isoindole-2-carboxylate]	7.3	31
C[C@@H]1Cc2ccccc2CN1C(=O)c1cc2c(cc1-c1cc(C(=O)N(C)c3ccc(O)cc3)c3n1CCCC3)CCN(C(=O)Cc1ccc(CN3CCOCC3)cc1)C2 [Example 129, N-(4-Hydroxyphenyl)-N-methyl-3-{7-[(3R)-3-methyl-1,2,3,4-tetrahydroisoquinoline-2-carbonyl]-2-{2-[4-(morpholin-4-ylmethyl)phenyl]acetyl}-1,2,3,4-tetrahydroisoquinolin-6-yl}-5,6,7,8-tetrahydroindolizine-1-carboxamide]	3.3	39
Cc1c(C(=O)N(C)c2ccc(O)cc2)cc(-c2cc3c(cc2C(=O)N2Cc4ccccc4C[C@H]2C)CN(C(=O)[C@H](O)c2ccccc2)C3)n1C [Example 175, N-(4-Hydroxyphenyl)-5-(2-[(2R)-2-hydroxy-2-phenylacetyl]-6-{[(3R)-3-methyl-3,4-dihydroisoquinolin-2(1H)-yl]carbonyl}-2,3-dihydro-1H-isoindol-5-yl)-N,1,2-trimethyl-1H-pyrrole-3-carboxamide]	4.2	90
Cc1cccc(OC(=O)N2CCc3cc(-c4cc(C(=O)N(C)c5ccc(O)cc5)c5n4CCCC5)c(C(=O)N4Cc5ccccc5C[C@H]4CN4CCOCC4)cc3C2)c1 [Example 99, 3-Methylphenyl 6-{1-[(4-hydroxyphenyl)(methyl)carbamoyl]-5,6,7,8-tetrahydroindolizin-3-yl}-7-[(3S)-3-(morpholin-4-ylmethyl)-1,2,3,4-tetrahydroisoquinoline-2-carbonyl]-1,2,3,4-tetrahydroisoquinoline-2-carboxylate]	5.5	13
CCS(=O)(=O)N1Cc2cc(C(=O)N3Cc4ccccc4C[C@H]3CN3CCOCC3)c(-c3cc(C(=O)N(C)c4ccc(O)cc4)c4n3CCCC4)cc2C1 [Example 18, 3-[2-(Ethanesulfonyl)-6-[(3S)-3-(morpholin-4-ylmethyl)-1,2,3,4-tetrahydroisoquinoline-2-carbonyl]-2,3-dihydro-1H-isoindol-5-yl]-N-(4-hydroxyphenyl)-N-methyl-5,6,7,8-tetrahydroindolizine-1-carboxamide hydrochloride]	38	1290
C[C@@H]1Cc2ccccc2CN1C(=O)c1cc2c(cc1-c1cc(C(=O)N(C)c3ccc(O)cc3)c3n1CCCC3)CCN(C(=O)Cc1ccc(CN3CCN(C)CC3)cc1)C2 [Example 113, N-(4-Hydroxyphenyl)-N-methyl-3-{7-[(3R)-3-methyl-1,2,3,4-tetrahydroisoquinoline-2-carbonyl]-2-(2-{4-[(4-methylpiperazin-1-yl)methyl]phenyl}acetyl)-1,2,3,4-tetrahydroisoquinolin-6-yl}-5,6,7,8-tetrahydroindolizine-1-carboxamide]	3.6	25
CCCCN(CCCC)C(=O)c1cc(-c2cc3c(cc2C(=O)N2Cc4ccccc4C[C@H]2C)CN(C(=O)Oc2ccccc2)CC3)n(C)c1C [Example 163, Phenyl 6-[4-(dibutylcarbamoyl)-1,5-dimethyl-1H-pyrrol-2-yl]-7-[(3R)-3-methyl-1,2,3,4-tetrahydroisoquinoline-2-carbonyl]-1,2,3,4-tetrahydroisoquinoline-2-carboxylate]	27	> 150
CN(C(=O)c1cc(-c2cc3c(cc2C(=O)N2Cc4ccccc4C[C@H]2CN2CCOCC2)CN(C(=O)OC(C)(C)C)CC3)n2c1CCCC2)c1ccc(O)cc1 [Example 1, tert-Butyl 6-{1-[(4-hydroxyphenyl)(methyl)carbamoyl]-5,6,7,8-tetrahydroindolizin-3-yl}-7-[(3S)-3-(morpholin-4-ylmethyl)-1,2,3,4-tetrahydroisoquinoline-2-carbonyl]-1,2,3,4-tetrahydroisoquinoline-2-carboxylate]	13	140
C[C@@H]1Cc2ccccc2CN1C(=O)c1cc2c(cc1-c1cc(C(=O)N(C)c3ccc(O)cc3)c3n1CCCC3)CN(C(=O)CNc1ccccc1)C2 [Example 87, N-(4-Hydroxyphenyl)-N-methyl-3-{6-[(3R)-3-methyl-1,2,3,4-tetrahydroisoquinoline-2-carbonyl]-2-[2-(phenylamino)acetyl]-2,3-dihydro-1H-isoindol-5-yl}-5,6,7,8-tetrahydroindolizine-1-carboxamide]	5.1	43
Cc1ccc(CC(C)C(=O)N2Cc3cc(C(=O)N4Cc5ccccc5C[C@H]4C)c(-c4cc(C(=O)N(C)c5ccc(O)cc5)c5n4CCCC5)cc3C2)cc1 (stereo partly drawn) [Example 25, N-(4-Hydroxyphenyl)-N-methyl-3-{6-[(3R)-3-methyl-1,2,3,4-tetrahydroisoquinoline-2-carbonyl]-2-{2-[(4-methylphenyl)methyl]propanoyl}-2,3-dihydro-1H-isoindol-5-yl}-5,6,7,8-tetrahydroindolizine-1-carboxamide]	29	144
Cc1c(C(=O)N(C)c2ccc(O)cc2)cc(-c2cc3c(cc2C(=O)N2Cc4ccccc4C[C@H]2CN2CCOCC2)CN(C(=O)CC24CC5CC(CC(C5)C2)C4)CC3)n1C [Example 798, 5-{2-[2-(Adamantan-1-yl)acetyl]-7-[(3S)-3-(morpholin-4-ylmethyl)-1,2,3,4-tetrahydroisoquinoline-2-carbonyl]-1,2,3,4-tetrahydroisoquinolin-6-yl}-N-(4-hydroxyphenyl)-N,1,2-trimethyl-1H-pyrrole-3-carboxamide]	9.1	76
CCCCN(CCCC)C(=O)c1cc(-c2cc3c(cc2C(=O)N2Cc4ccccc4C[C@H]2CN2CCOCC2)CN(C(=O)Cc2ccccc2)CC3)n(C)c1C [Example 165, N,N-Dibutyl-1,2-dimethyl-5-{7-[(3S)-3-(morpholin-4-ylmethyl)-1,2,3,4-tetrahydroisoquinoline-2-carbonyl]-2-(2-phenylacetyl)-1,2,3,4-tetrahydroisoquinolin-6-yl}-1H-pyrrole-3-carboxamide]	18	> 150
COc1ccc(CC(=O)N2Cc3cc(C(=O)N4Cc5ccccc5C[C@H]4C)c(-c4cc(C(=O)N(C)c5ccc(O)cc5)c(C)n4C)cc3C2)cc1 [Example 101, N-(4-Hydroxyphenyl)-5-{2-[2-(4-methoxyphenyl)acetyl]-6-[(3R)-3-methyl-1,2,3,4-tetrahydroisoquinoline-2-carbonyl]-2,3-dihydro-1H-isoindol-5-yl}-N,1,2-trimethyl-1H-pyrrole-3-carboxamide]	2.6	31
Cc1ccc(OC(=O)N2Cc3cc(C(=O)N4Cc5ccccc5C[C@H]4C)c(-c4cc(C(=O)N(C)c5ccc(O)cc5)c(C)n4C)cc3C2)cc1 [Example 107, 4-Methylphenyl 5-{4-[(4-hydroxyphenyl)(methyl)carbamoyl]-1,5-dimethyl-1H-pyrrol-2-yl}-6-[(3R)-3-methyl-1,2,3,4-tetrahydroisoquinoline-2-carbonyl]-2,3-dihydro-1H-isoindole-2-carboxylate]	3.5	6.9
C[C@@H]1Cc2ccccc2CN1C(=O)c1cc2c(cc1-c1cc(C(=O)N(C)c3ccc(O)cc3)c3n1CCCC3)CCN(S(=O)(=O)c1ccc3ccccc3c1)C2 [Example 41, N-(4-Hydroxyphenyl)-N-methyl-3-{7-[(3R)-3-methyl-1,2,3,4-tetrahydroisoquinoline-2-carbonyl]-2-(naphthalene-2-sulfonyl)-1,2,3,4-tetrahydroisoquinolin-6-yl}-5,6,7,8-tetrahydroindolizine-1-carboxamide]	26	78
C[C@@H]1Cc2ccccc2CN1C(=O)c1cc2c(cc1-c1cc(C(=O)N(C)c3ccc(O)cc3)c3n1CCCC3)CCN(C(=O)C1(c3ccccc3)CC1)C2 [Example 109, N-(4-Hydroxyphenyl)-N-methyl-3-{7-[(3R)-3-methyl-1,2,3,4-tetrahydroisoquinoline-2-carbonyl]-2-(1-phenylcyclopropanecarbonyl)-1,2,3,4-tetrahydroisoquinolin-6-yl}-5,6,7,8-tetrahydroindolizine-1-carboxamide]	8.6	89
